In patent US20200147038A1, “ASSESSING AND TREATING PSYCHEDELIC-[…]” (Eleusis Benefit Corporation, PBC, priority 2017, published 2020):
Several values for one entry are separate records, joined by “and”; a condition that tells them apart may be missing. Equal values may be shown once.

What was measured:
[1] = Retrospective online survey of individuals who had consumed psilocybin (Example 1; MEQ30, positive change); assay type: in vivo, human
Experimental: A retrospective survey study was conducted based on crowdsourced online data gathered from individuals who had volitionally consumed psilocybin within the past year. Data were collected about participants' traits and demographic background, and then individuals were primed to recall their life experience before, at the time of ingestion, during, and after the psilocybin before completing scales to measure hypothesized traits and states. Previously validated scales were used where available (e.g., Tellegen Absorption Scale, MEQ30), and new scales were developed and tested for traits and states without existing measures (mental barriers, identity distress, state of surrender). A hierarchical regression model was used to test the relationships, and a path analysis was conducted to test the mediating capacity of ME.
Participants were directed to the relevant webpage after reading informed consent text, completing screening and agreeing to participate in accordance with the stipulations of the Institutional Review Board. Scaled items in all but the long-term outcomes used 4-point Likert scales ranging from 1=Strongly Disagree to 4=Strongly Agree. Answers were required for each item, but each included an option “I prefer not to answer.”
Participants' experiences were measured in two pages on the survey. The first activated their recollection of the experience through an open-ended question asking them to describe their experience and specific fixed response questions about their experience, including whether their eyes were primarily open or closed and the extent to which they were talking or exposed to media with words during their experience. On the second page, subjects responded to […] intermixed items on a 4-point Likert scale from the Mystical Experience Questionnaire (MEQ30) and 36 items from the Sacred Emotions Scale (SES), measuring the extent to which they felt “exuberance” and “dread” during the experience.
The MEQ30 is a validated scale consisting of 30 items systematically validated and utilized in psychedelic studies. Some of the items from the MEQ30 were adapted for this study so that they were semantically consistent with the other scale (e.g., changed “I felt certain that I′d encountered ultimate reality” to “Certainty that I′d encountered ultimate reality”), and used a 4-point rather than a 7-point scale for reasons described above. The scale measures four dimensions of a mystical experience: (a) Mystical; 15 items with α=0.957, (b) Ineffability; 3 items with α=0.775, (c) Timelessness/Spacelessness; 6 items with α=0.844, and (d) Positive Affect; 6 items with α=0.851. The total scale produced Cronbach α=0.967. All of the reliability scores from this sample were similar to internal reliability scores produced in the norming sample (MacLean), which ranged from 0.831 to 0.936 for the four factors and 0.957 for the total scale.
Participants were asked to describe their current state in two pages. […] The second page offered 46 statements including 15 intermixed items adapted from the work of Griffiths et al., (Psychopharmacology 2006, 187:268-283) measuring
Data were collected on Amazon Mechanical Turk (MTurk), an online source in which individuals participate in survey studies for small cash compensation. […] Individuals who were registered as MTurk Workers from the U.S. indicated their interest by accepting the job or the “hit.” If individuals accepted the “hit,” they were directed to a screening page. If they passed those screening items, described below, they were given a link and password to the informed consent followed by the actual survey. • Screening
The mean number of correct attention items in the final sample was 11.5 of 12 (SD=1.02), and the mean for the non-selected group was 4.69 (SD=3.36) attention items answered correctly. The final sample consisted of 143 valid responses with 81 males and 62 females (43%), and an average age of 31.1 (SD=9.64), with ages ranging from 18 to 62 years. […]

[2] = Retrospective online survey of psilocybin users (Example 2; 5D-ASC Mystical-OBN / Adverse-DED, long-term change); assay type: in vivo, human; conditions: for Negative Change, Mean / Positive Change, Mean: 5-point scale, 3=no change; for Flourishing, Mean: 6-point scale; for Importance, Mean: slider scale 1 to 100
Source text: Participants were U.S. residents recruited through Amazon Mechanical Turk (MTurk; an online source in which individuals participate in survey studies for small cash compensation) who had ingested psilocybin within the past twelve months. The final screened sample consisted of 183 valid responses with 97 males (53.0%) and 85 females (46.4%) (1 missing), and an average age of 31.9 (SD=9.43) ranging from 18 to 70 years.
[…]. The six sections included background items, trait measures, prior state (i.e., life situation before psilocybin session), proximal state (i.e., emotions and motivation at ingestion), intrasession measures (i.e., the experience itself), and current state. Scaled items in all but the long-term outcomes used […] Likert scales ranging from 1=Strongly Disagree to 6=Strongly Agree. Open-ended questions designed to activate participants' relevant recollections were completed before responding to scale items related to prior state, proximal state, intrasession, and current status. Measures utilized in the regression models include the following;
Measures of intrasession experience based on items from six subscales of the 5D-ASC (Dittrich et al., A Pharmacopsychiatry 1998, 31:80; Studerus et al., PLoS ONE 2010, 5). Mystical-OBN used a mean of items measuring Oceanic Boundlessness (Studerus et al., PLoS ONE 2012, 7): “experience of unity”, “spiritual experience”, “blissful state”, and “insightfulness”. Adverse-DED was a mean of items associated with Dread of Ego Dissolution (Studerus et al., PLoS ONE 2012, 7): “impaired control and cognition”, and “anxiety.” Scores for Mystical-OBN ranged from 1-5.92 (M=3.87, SD=1.16; α=0.93), and scores for Adverse-DED ranged from 1-5.47 (M=2.25, SD=0.98, α=0.91).
Scale items measuring change based on pairs of adjectives adapted from Griffiths (2006). Individuals used a 5-point scale to indicate whether they had experienced a decrease, no change, or an increase in the characteristics. Positive change was calculated with the mean of nine items related to interpersonal traits, intrapersonal characteristics, and attitudes (Cronbach's α=0.929). Negative change was the mean of three items (α=0.883).
Analyses of the impact of mystical experience on long-term outcomes were conducted in two ways: (1) independent t-test comparisons of each long-term outcome based on a complete or not complete mystical experience, and (2) a path analysis of the mediating role of mystical experience on positive change.
Scores for importance were based on a slider scale ranging from 1 to 100. […] Flourishing was rated on a 6-point scale ranging from 1=strongly disagree to 6=strongly agree.

[3] = Complete mystical experience, N=51
[4] = None/partial mystical experience, N=129

## CN(C)CCc1c[nH]c2cccc(OP(=O)(O)O)c12 [psilocybin]
[1]; MEQ30, >2.5 of 4 on all four subscales, whole sample
  proportion meeting criteria for a complete ME: 58%
[1]; MEQ30, >2.5 of 4 on all subscales, experienced users, n=70
  proportion with a full ME, experienced psychedelic users: 63%
[1]; MEQ30, >2.5 of 4 on all subscales, novice users, n=13
  proportion with a full ME, novice users: 42%
[1]; MEQ30, cut point 3 of 4 on all subscales
  proportion reporting complete MEs, reanalysis with cut point of 3: 45%
[1]; participants with Complete ME, N=83
  Positive Change, Mean: 3.8348
[1]; participants with No/Incomplete ME, N=60
  Positive Change, Mean: 3.2274
[1]; whole sample (143 valid responses), higher scores = increases in positive emotions and decreases in negative emotions
  mean positive change score: 3.58 (SD=0.65)
[2]; 5D-ASC Dread of Ego Dissolution items, whole sample (183)
  Adverse-DED score, mean: 2.25
[2]; 5D-ASC Oceanic Boundlessness items, whole sample (183)
  Mystical-OBN score, mean: 3.87
[2]; [3]
  Negative Change, Mean: 2.22
  Positive Change, Mean: 4.00
  Flourishing, Mean: 4.78
  Importance, Mean: 75.66
[2]; [4]
  Negative Change, Mean: 2.75 and 2.74
  Positive Change, Mean: 3.39
  Flourishing, Mean: 4.39
  Importance, Mean: 42.75
